Patent US6589934B1, “Kv2.1 antagonists” (SmithKline Beecham Corporation, priority 1997, dated 2003)
pIC50: −log10 of the molar value.

Biological target: T1, human kv2.1 (Homo sapiens, UniProt Q14721)
T1 construct: A HindIII-Notl fragment containing full length 2.1 was isolated from pBS/kv2.1 and subcloned to pcDNA3 for expression; expressed in transfected cells
T1 sequence (Q14721 1-858): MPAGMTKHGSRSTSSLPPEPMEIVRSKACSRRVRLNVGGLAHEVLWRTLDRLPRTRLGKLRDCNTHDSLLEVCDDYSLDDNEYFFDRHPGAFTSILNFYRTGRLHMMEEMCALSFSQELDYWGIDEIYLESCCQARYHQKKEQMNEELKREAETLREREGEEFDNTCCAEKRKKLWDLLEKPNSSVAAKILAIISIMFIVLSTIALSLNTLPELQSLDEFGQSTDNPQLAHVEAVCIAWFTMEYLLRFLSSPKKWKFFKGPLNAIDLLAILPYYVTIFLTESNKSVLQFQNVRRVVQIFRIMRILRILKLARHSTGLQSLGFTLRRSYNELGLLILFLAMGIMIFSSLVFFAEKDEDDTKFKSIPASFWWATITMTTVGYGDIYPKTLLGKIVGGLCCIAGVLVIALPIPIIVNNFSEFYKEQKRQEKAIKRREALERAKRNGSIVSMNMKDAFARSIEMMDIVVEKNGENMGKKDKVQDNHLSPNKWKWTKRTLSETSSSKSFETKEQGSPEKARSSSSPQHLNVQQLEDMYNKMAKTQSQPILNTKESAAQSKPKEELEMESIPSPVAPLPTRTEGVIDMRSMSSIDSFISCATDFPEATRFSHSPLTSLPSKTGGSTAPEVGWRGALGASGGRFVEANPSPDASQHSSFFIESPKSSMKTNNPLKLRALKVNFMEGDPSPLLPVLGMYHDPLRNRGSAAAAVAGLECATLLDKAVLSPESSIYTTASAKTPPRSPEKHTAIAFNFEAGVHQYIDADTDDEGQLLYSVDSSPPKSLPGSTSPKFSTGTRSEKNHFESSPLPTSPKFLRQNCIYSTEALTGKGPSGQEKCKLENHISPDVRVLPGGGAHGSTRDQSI
Assay: Whole cell patch clamp block of Kv2.1 in stably expressing CHO cells
Type: cell-based
Settings: CHO cells stably expressing Kv2.1, whole cell patch clamp
Text: Full length cDNA of human kv2.1 was amplified from human brain polyA RNA by PCR. Oligo primers used for PCR amplification were designed according to the GeneBank accession# X68302 . The sequences of the two primers are: (5′ PCR primer) 5′-[…] (SEQ ID NO: 1), (3′ PCR primer) 5′-[…] (SEQ ID NO: 2). The cDNA was subcloned into pBS and sequenced. A HindIII-Notl fragment containing full length 2.1 was isolated from pBS/kv2.1 and subcloned to pcDNA3 for expression. The clone was transferred to pcDNA3 under the CMV promotor. […] Specifically, 1.5 μg of plasmid DNA (1.2 μg of Kv2.1 Plasmid and 0.3 μg of GFP plasmid Green Lantern™ (GIBCO)) was pre-incubated with 100 μl of DMEM/F12 and 12 μl of lipofectamine for a minimum of 15 minutes. Following incubation 1.4 ml of DMEM/F12 was added and the mixture overlayed on CHO cells (70-90% confluent) in a 6 well tray (1.5 ml/well). After 6-8 hours incubation an additional 1.5 ml of DMEM/F12 media containing 10% FBS was added to the transfection reaction. After a further overnight incubation the cells were removed from the 6 well plate with […] and plated at single cell density (10% Confluency) in 6 well plates contianing 25 mm glass coverslips. After overnight incubation, GFP containing cells were patched for current.
Stable CHO lines were prepared by using the same transfection protocol as above excluding the GFP DNA. […]

Row | Compound | pIC50
1 | CN1C[C@@H]2CN(CCCCc3ccc4c(c3)OCCO4)C[C@H](C1)[C@@H]2OC(=O)c1ccc(Cl)cc1 [Example 4] | ~6.52
2 | hanatoxin (ECRYLFGGCKTTSDCCKHLGCKFRDKYCAWDFTFS) [reference compound] | ~7.22
